Values joined by “and” are separate entries in the source; they are usually repeats but may differ in a detail not shown here. Equal entries are not always repeated. “Also recorded” adds a separate entry of the source. Where two headings read alike, the source gives them in different places.
Key:
[1] = system: serum triglycerides; assay: Serum triglycerides (STG) in male SJL mice; assay type: in vivo; conditions: for Serum triglycerides, Day 4 0 hr (2 pm), group mean / Serum triglycerides, Day 3 8 a.m., group mean / Serum triglycerides, Day 4 0 hr (2 pm): 20 mg/kg oral gavage daily; for Serum triglycerides, Day 3 8 a.m., group mean / Serum triglycerides, Day 3 8 a.m.: non-fasting; for Serum triglycerides, Day 3 8 a.m. / Serum triglycerides, Day 4 0 hr (2 pm): individual male SJL mice, 20 mg/kg; for Serum triglycerides, Day 3 8 a.m.: 20 mg/kg oral gavage daily in corn oil; for Effect on non-fasting STG: Day 3, 8 a.m.
Procedure: Male SJL mice were dosed orally with vehicle, AGN 197116 (RARα antagonist) or AGN 194310 (RAR pan-antagonist) for 4 consecutive days. The structure of AGN 194310 is described herein below. The structure of AGN 197116 is: [drawing 16]
The test compounds were dissolved in corn oil and given at a dosage/volume of 20 mg/5 ml/kg. […]
(§1) On day 4, animals were fasted after dosing, starting at 8 a.m. Following 6 hours of fasting, blood samples were collected prior to intravenous injection of WR-1339 at 100 mg/5 ml/kg. Additional serum samples were collected at 1 and 2 hours after WR-1339 injection. WR-1339 is a detergent which inactivates lipoprotein lipase and thus prevents the removal of triglycerides from circulation. By measuring the increase of STG after WR-1339 administration in fasted animals, one can estimate the hepatic triglyceride (HTG) output during fasting.
(§2) Due to the lack of effect of AGN 197116 at 20 mg/kg, the dose was increased to 100 mg/kg in the same set of mice. STG was determined on day 3 prior to dosing (Day 3, 8 a.m.). […] To ensure that AGN 197116 would be bioavailable, AGN 197116 was dissolved in DMSO and given by intraperitoneal injections, once at 4 p.m. on day 3 and once at 8 a.m. on day 4, at a dosage of 100 mg/kg/injection. Administration of WR-1339 and blood collections on day 4 were similarly conducted as described above.

[2] = system: serum lipids (triglyceride, cholesterol, LDL, HDL); conditions: for Triglyceride level after treatment: with diet and exercise
[3] = Clinical observation, body weight and food consumption of treated monkeys; assay type: in vivo, cynomolgus monkeys
Description: AGN 194310 is an RAR antagonist or inverse agonist. Its structure is described herein below.

[4] = system: hepatic triglyceride output; assay: Hepatic triglyceride (HTG) output: increase of STG after WR-1339 in fasted male SJL mice; assay type: in vivo; conditions: for Serum triglycerides, Day 4 post-WR-1339 1 hr (3 p.m.), group mean / Serum triglycerides, Day 4 post-WR-1339 2 hr (4 p.m.), group mean / Serum triglycerides, Day 4 post-WR-1339 1 hr (3 p.m.) / Serum triglycerides, Day 4 post-WR-1339 2 hr (4 p.m.): fasted; for Effect on HTG output after WR-1339 injection: 20 mg/kg orally for 4 days
Procedure: as §1, §2

[5] = Stability to light; assay type: physicochemical
[6] = system: serum triglycerides; assay: Serum triglycerides in cynomolgus monkeys treated orally (Study PT-99-10); assay type: in vivo
Procedure: (§3) Five male cynomologus monkeys were employed in Study PT-99-10. […] Its structure is described herein below. The remaining two were similarly treated with a vehicle to serve as control. Serum samples were collected on days 1, 8, 15, 22 and 25 for triglyceride determination. Serum samples from days 8, 15, 22 and 25 were also assayed for the concentration of AGN 194310.

[7] = cynomolgus monkey, in vivo
Procedure: as §3, with “PT-99-10. Three of the five monkeys were treated with AGN 194310 at a daily dosage of 1.25 mg/kg (orally) for a period of 25 days.” for “PT-99-10.”

[8] = group mean, male SJL mice, after 6 hours fasting, before WR-1339
[9] = after 6 hours fasting, before WR-1339
[10] = male SJL mice, 20 mg/kg oral gavage daily, 1 hr after 100 mg/kg tyloxapol IV
[11] = male SJL mice, 20 mg/kg oral gavage daily, 2 hr after 100 mg/kg tyloxapol IV
[12] = individual male SJL mice, 20 mg/kg oral gavage daily, 1 hr after 100 mg/kg tyloxapol IV
[13] = individual male SJL mice, 20 mg/kg oral gavage daily, 2 hr after 100 mg/kg tyloxapol IV

Structure (SMILES): CCc1ccc(C2=CC(C)(C)Sc3ccc(C#Cc4ccc(C(=O)O)cc4)cc32)cc1 [AGN 194310, 4-[[4-(4-ethylphenyl)-2,2-dimethyl-(2H)-thiochromen-6-yl]-ethynyl]-benzoic acid]
- Serum triglycerides, Day 4 0 hr (2 pm), group mean [1, 8]: 71.5
- Serum triglycerides, Day 3 8 a.m., group mean ([1]; group mean, male SJL mice): 92.7
- Serum triglycerides, Day 3 8 a.m. [1]: 71.2 and 105.7 and 67.9 and 113.2 and 134.8 and 76.6 and 63.1 and 84.1 and 95.6 and 115.2
- Serum triglycerides, Day 4 0 hr (2 pm) [1, 9]: 76.6 and 76 (2×) and 57.3 and 74.7 and 80.5 and 71.5 and 73.4 and 61.1 and 67.6
- Effect on non-fasting STG ([1]; male SJL mice, 20 mg/kg orally): appeared to lower
- Effect on fasting STG ([1]; male SJL mice, 20 mg/kg orally, Day 4, 2 p.m.): but not fasting STG
- Triglyceride level after treatment ([2]; Example 1, person, tablet 20 mg daily, 3 months, initial 440 mg/dL): 280 mg/dL
- Triglyceride level after treatment ([2]; Example 2, person, tablet 50 mg twice daily, initial 950 mg/dL): 450 mg/dL
- Side effects ([2]; human, in vivo): no side effects
- Tolerability ([2]; human, in vivo): tolerates the medication well
- Body weight and rate of food consumption ([3]; 1.25 mg/kg orally daily, throughout the 25 day study): no change in body weight or rate of food consumption
- Abnormal clinical signs ([3]; daily dose 1.25 mg/kg orally, 25 days): without any noticeable abnormal clinical signs
- Serum triglycerides, Day 4 post-WR-1339 1 hr (3 p.m.), group mean [4, 10]: 266.3
- Serum triglycerides, Day 4 post-WR-1339 2 hr (4 p.m.), group mean [4, 11]: 485.6
- Serum triglycerides, Day 4 post-WR-1339 1 hr (3 p.m.) [4, 12]: 216.8 and 307.2 and 294.9 and 311.7 and 238.7 and 303.9 and 260 and 252.3 and 210.9
- Serum triglycerides, Day 4 post-WR-1339 2 hr (4 p.m.) [4, 13]: 328.5 and 548 and 562.9 and 577.1 and 493.8 and 508 and 550 and 542.9 and 259.1
- Effect on HTG output after WR-1339 injection ([4]; male SJL mice): reduction of HTG output
- Stability to normal light [5]: relatively stable to normal light
- Serum triglycerides, Day 1 ([6]; individual male cynomolgus monkeys, by gastric intubation daily, Day 1 (baseline)): 48.8 mg/dL and 52.5 mg/dL and 58.5 mg/dL
- Serum triglycerides, Day 8 ([6]; individual male cynomolgus monkeys, by gastric intubation daily, Day 8): 24.3 mg/dL and 21.6 mg/dL and 19.2 mg/dL
- Serum triglycerides, Day 15 ([6]; individual male cynomolgus monkeys, by gastric intubation daily, Day 15): 18.2 mg/dL and 30.7 mg/dL and 29.6 mg/dL
- Serum triglycerides, Day 22 ([6]; individual male cynomolgus monkeys, by gastric intubation daily, Day 22): 30.4 mg/dL and 20.6 mg/dL and 36.5 mg/dL
- Serum triglycerides, Day 25 ([6]; individual male cynomolgus monkeys, by gastric intubation daily, Day 25): 20.3 mg/dL and 23.4 mg/dL and 28.3 mg/dL
- Serum triglycerides, Day 1, group mean ([6]; mean of 3 monkeys, by gastric intubation, Day 1 (baseline)): 53.3 mg/dL
- Serum triglycerides, Day 8, group mean ([6]; mean of 3 monkeys, by gastric intubation, Day 8): 21.7 mg/dL
- Serum triglycerides, Day 15, group mean ([6]; mean of 3 monkeys, by gastric intubation, Day 15): 26.2 mg/dL
- Serum triglycerides, Day 22, group mean ([6]; mean of 3 monkeys, by gastric intubation, Day 22): 29.2 mg/dL
- Serum triglycerides, Day 25, group mean ([6]; mean of 3 monkeys, by gastric intubation, Day 25): 24.0 mg/dL
- Effect on serum triglycerides ([6]; monkeys, daily dose 1.25 mg/kg orally, 1.25 mg/kg): highly significant decrease of serum triglycerides; also recorded: lowers serum triglycerides
- Average decrease of serum triglycerides compared to day 1 (baseline) ([6]; per treated monkey, 1.25 mg/kg orally daily for 25 days, control monkeys increased 48% and 89%, 1.25 mg/kg): 52% and 54% and 51%
- Oral absorption [7]: well absorbed

Structure (SMILES): Cc1ccc(C2=CCC(C)(C)c3cc(O)c(C(=O)Nc4ccc(C(=O)O)c(F)c4)cc32)cc1 [AGN 197116]
- Effect on STG ([1]; SJL mice, 100 mg/kg orally, Day 3, 8 a.m. prior to dosing): no lowering of STG was observed
- Effect on STG ([1]; SJL mice, 16 hours after a single intraperitoneal 100 mg/kg dose in DMSO (Day 4, 8 a.m.)): clear lowering of STG
- Effect on fasting STG ([1]; SJL mice, intraperitoneal 100 mg/kg/injection, after fasting (Day 4, 2 p.m.)): this effect disappeared after fasting
- Serum triglycerides, Day 4 post-WR-1339 0 hr (2 pm), group mean ([1]; group mean, SJL mice, 100 mg/kg oral then I.P., after 6 hours fasting, before WR-1339): 50
- Serum triglycerides, Day 4 0 hr (8 am), group mean ([1]; group mean, SJL mice, 16 hours after a single 100 mg/kg I.P. dose): 79
- Serum triglycerides, Day 3 0 Hour, group mean ([1]; group mean, SJL mice, Day 1-3 100 mg/kg oral, Day 3 prior to dosing): 118
- Serum triglycerides, Day 4 0 hr (2 pm), group mean [1, 8]: 72.4
- Serum triglycerides, Day 3 8 a.m., group mean ([1]; group mean, male SJL mice): 123.0
- Serum triglycerides, Day 4 0 hr (8 am) ([1]; individual SJL mice, 16 hours after a single 100 mg/kg I.P. dose (after Day 1-3 100 mg/kg oral), 100 mg/kg): 58 and 79 and 51 and 114 and 50 and 125
- Serum triglycerides, Day 4 post-WR-1339 0 hr (2 pm) ([1]; individual SJL mice, Day 1-3 100 mg/kg oral, Day 3-4 100 mg/kg I.P., after 6 hours fasting, before WR-1339, 100 mg/kg): 42 mg/dL (2×) and 36 mg/dL and 73 mg/dL and 59 mg/dL and 50 mg/dL
- Serum triglycerides, Day 3 0 Hour ([1]; individual SJL mice, Day 1-3 100 mg/kg oral, Day 3 prior to dosing, 100 mg/kg): 81 and 104 and 103 and 139 and 107 and 171
- Serum triglycerides, Day 3 8 a.m. [1]: 128.7 and 124 and 150.3 and 110.5 and 118.6 and 124.7 and 112.5 and 106.4 and 131.4
- Serum triglycerides, Day 4 0 hr (2 pm) [1, 9]: 63.1 and 91.7 and 43 and 72.1 and 90.8 and 76 and 68.2 and 73.4 (2×)
- Effect on non-fasting STG ([1]; male SJL mice, 20 mg/kg orally): not observed
- Effect on HTG output ([4]; SJL mice, intraperitoneal injection 100 mg/kg/injection): reduced
- Serum triglycerides, Day 4 post-WR-1339 1 hr (3 p.m.), group mean ([4]; SJL mice, 100 mg/kg oral then I.P., 1 hr after WR-1339): 222
- Serum triglycerides, Day 4 post-WR-1339 2 hr (4 p.m.), group mean ([4]; SJL mice, 100 mg/kg oral then I.P., 2 hr after WR-1339): 345
- Serum triglycerides, Day 4 post-WR-1339 1 hr (3 p.m.), group mean [4, 10]: 334.2
- Serum triglycerides, Day 4 post-WR-1339 2 hr (4 p.m.), group mean [4, 11]: 646.8
- Serum triglycerides, Day 4 post-WR-1339 1 hr (3 p.m.) ([4]; individual SJL mice, Day 1-3 100 mg/kg oral, Day 3-4 100 mg/kg I.P., 1 hr after WR-1339, 100 mg/kg): 220 and 195 and 248 and 345 and 126 and 197
- Serum triglycerides, Day 4 post-WR-1339 2 hr (4 p.m.) ([4]; individual SJL mice, Day 1-3 100 mg/kg oral, Day 3-4 100 mg/kg I.P., 2 hr after WR-1339, 100 mg/kg): 285 and 272 and 396 and 531 and 200 and 387
- Serum triglycerides, Day 4 post-WR-1339 1 hr (3 p.m.) [4, 12]: 360.1 and 380.1 and 464.1 and 241.9 and 331.7 and 329.8 and 262.6 and 311 and 326.5
- Serum triglycerides, Day 4 post-WR-1339 2 hr (4 p.m.) [4, 13]: 726.9 and 723.7 and 770.2 and 590 and 575.2 and 700.4 and 462.8 and 659.1 and 612.6
- Effect on HTG output after WR-1339 injection ([4]; male SJL mice): not observed
